Test results taken from US20260092071A1, “COMPOUNDS AND COMPOSITIONS AS SMARCA2/4 DEGRADERS AND USES THEREOF” (REGENTS OF THE UNIVERSITY OF MICHIGAN, priority 2022, published 2026).
Like-named read-outs stand apart in the source and are kept apart here.

Columns and labels:
SMARCA2 = SMARCA2 (Homo sapiens, UniProt P51531); test: HiBiT assay for protein degradation, Hela SMARCA2-HiBiT cells (A series); assay type: cell-based; set-up: Hela cells were genetically modified via CRISPR/Cas9 to fuse HiBiT to the carboxy terminus of SMARCA2; host or cells: HeLa (CRISPR/Cas9 HiBiT knock-in);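 for SMARC A2 Hela HiBit Dmax (%): 24 h compound treatment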
Summary of the method: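 HeLa cells engineered by CRISPR/Cas9 to carry a HiBiT tag fused to the C-terminus of SMARCA2 (Promega CS302365) were grown in DMEM supplemented with FBS and penicillin-streptomycin. After treatment, remaining SMARCA2 protein was quantified with the Nano-Glo® HiBiT Lytic Detection Assay (Promega N3050), and curves were fitted in GraphPad Prism.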

SMARCA4 = SMARCA4 (Homo sapiens, UniProt P51532); test: HiBiT assay for protein degradation, Hela SMARCA4-HiBiT cells (A series); assay type: cell-based; set-up: fuse HiBiT to the carboxy terminus of SMARCA2 (Promega CS302365) or SMARCA4 (Promega CS3023225); host or cells: HeLa (CRISPR/Cas9 HiBiT knock-in); conditions: for DC50: read-out: SMARC A4 Hela HiBit DC50; for Dmax: read-out: SMARC A4 Hela HiBit Dmax(%)
Summary of the method: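 HeLa cells engineered by CRISPR/Cas9 to carry a HiBiT tag fused to the C-terminus of SMARCA4 (Promega CS3023225) were grown in DMEM supplemented with FBS and penicillin-streptomycin. After compound exposure, remaining SMARCA4 protein was quantified using the Nano-Glo® HiBiT Lytic Detection Assay (Promega N3050), and curves were fitted in GraphPad Prism.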

[1] = Hela SMARCA2-HiBiT cells, 24 hours treatment; read-out: SMARC A2 Hela HiBit Dmax (%)
[2] = read-out: SMARC A2 Hela HiBit DC50; Hela SMARCA2-HiBiT cells, 24 hours treatment
[3] = Hela SMARCA4-HiBiT cells, 24 hours treatment
[4] = Hela SMARCA2-HiBiT cells, 24 hours treatment; read-out: SMARC A2 Hela HiBit DC50
[5] = Hela SMARCA2-HiBiT cells, 24 hours treatment
[6] = read-out: SMARC A2 Hela HiBit DC50
[7] = HeLa, read-out: SMARC A2 Hela HiBit Dmax (%)

Chain of SMARCA2 (P51531 whole entry, the tested form may be a part): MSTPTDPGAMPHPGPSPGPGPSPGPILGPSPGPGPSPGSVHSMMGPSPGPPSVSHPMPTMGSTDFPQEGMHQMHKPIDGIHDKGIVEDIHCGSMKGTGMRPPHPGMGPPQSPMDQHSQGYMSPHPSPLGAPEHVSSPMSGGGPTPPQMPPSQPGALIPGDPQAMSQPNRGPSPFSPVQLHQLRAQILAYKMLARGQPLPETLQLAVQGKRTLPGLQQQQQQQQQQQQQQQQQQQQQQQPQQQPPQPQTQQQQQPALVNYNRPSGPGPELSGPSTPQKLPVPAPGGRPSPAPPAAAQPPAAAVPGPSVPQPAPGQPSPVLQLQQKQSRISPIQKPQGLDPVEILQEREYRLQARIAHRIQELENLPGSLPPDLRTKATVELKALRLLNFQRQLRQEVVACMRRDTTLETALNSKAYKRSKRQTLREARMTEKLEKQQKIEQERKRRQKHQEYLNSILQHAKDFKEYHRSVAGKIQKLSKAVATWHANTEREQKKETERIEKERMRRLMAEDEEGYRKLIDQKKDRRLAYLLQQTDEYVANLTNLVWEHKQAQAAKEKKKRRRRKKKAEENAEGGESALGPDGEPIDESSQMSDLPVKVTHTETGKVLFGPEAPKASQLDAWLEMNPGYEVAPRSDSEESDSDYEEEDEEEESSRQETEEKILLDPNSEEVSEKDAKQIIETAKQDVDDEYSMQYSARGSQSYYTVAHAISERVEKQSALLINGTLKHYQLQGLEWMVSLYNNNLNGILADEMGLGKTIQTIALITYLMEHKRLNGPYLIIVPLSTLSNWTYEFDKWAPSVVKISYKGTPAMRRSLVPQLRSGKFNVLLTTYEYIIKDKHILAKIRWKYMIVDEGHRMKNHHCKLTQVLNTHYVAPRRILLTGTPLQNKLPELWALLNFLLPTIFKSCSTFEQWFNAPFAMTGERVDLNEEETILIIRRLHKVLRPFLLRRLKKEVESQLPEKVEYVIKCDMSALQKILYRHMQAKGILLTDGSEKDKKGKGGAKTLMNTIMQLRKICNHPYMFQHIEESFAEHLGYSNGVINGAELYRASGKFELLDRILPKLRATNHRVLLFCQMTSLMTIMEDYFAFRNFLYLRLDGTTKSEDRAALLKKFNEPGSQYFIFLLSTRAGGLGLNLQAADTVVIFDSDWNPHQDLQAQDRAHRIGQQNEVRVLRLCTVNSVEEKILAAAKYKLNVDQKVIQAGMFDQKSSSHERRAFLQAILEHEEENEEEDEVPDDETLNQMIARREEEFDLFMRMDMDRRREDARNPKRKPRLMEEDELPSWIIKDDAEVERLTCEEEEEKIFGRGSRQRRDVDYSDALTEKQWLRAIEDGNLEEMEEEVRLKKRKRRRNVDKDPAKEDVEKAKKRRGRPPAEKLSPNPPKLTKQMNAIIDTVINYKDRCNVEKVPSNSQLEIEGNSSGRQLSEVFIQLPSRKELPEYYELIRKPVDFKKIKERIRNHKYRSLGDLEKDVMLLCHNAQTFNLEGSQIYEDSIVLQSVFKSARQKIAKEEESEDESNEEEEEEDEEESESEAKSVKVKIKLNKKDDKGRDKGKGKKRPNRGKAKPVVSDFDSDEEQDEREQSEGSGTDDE
Chain of SMARCA4 (P51532 whole entry, the tested form may be a part): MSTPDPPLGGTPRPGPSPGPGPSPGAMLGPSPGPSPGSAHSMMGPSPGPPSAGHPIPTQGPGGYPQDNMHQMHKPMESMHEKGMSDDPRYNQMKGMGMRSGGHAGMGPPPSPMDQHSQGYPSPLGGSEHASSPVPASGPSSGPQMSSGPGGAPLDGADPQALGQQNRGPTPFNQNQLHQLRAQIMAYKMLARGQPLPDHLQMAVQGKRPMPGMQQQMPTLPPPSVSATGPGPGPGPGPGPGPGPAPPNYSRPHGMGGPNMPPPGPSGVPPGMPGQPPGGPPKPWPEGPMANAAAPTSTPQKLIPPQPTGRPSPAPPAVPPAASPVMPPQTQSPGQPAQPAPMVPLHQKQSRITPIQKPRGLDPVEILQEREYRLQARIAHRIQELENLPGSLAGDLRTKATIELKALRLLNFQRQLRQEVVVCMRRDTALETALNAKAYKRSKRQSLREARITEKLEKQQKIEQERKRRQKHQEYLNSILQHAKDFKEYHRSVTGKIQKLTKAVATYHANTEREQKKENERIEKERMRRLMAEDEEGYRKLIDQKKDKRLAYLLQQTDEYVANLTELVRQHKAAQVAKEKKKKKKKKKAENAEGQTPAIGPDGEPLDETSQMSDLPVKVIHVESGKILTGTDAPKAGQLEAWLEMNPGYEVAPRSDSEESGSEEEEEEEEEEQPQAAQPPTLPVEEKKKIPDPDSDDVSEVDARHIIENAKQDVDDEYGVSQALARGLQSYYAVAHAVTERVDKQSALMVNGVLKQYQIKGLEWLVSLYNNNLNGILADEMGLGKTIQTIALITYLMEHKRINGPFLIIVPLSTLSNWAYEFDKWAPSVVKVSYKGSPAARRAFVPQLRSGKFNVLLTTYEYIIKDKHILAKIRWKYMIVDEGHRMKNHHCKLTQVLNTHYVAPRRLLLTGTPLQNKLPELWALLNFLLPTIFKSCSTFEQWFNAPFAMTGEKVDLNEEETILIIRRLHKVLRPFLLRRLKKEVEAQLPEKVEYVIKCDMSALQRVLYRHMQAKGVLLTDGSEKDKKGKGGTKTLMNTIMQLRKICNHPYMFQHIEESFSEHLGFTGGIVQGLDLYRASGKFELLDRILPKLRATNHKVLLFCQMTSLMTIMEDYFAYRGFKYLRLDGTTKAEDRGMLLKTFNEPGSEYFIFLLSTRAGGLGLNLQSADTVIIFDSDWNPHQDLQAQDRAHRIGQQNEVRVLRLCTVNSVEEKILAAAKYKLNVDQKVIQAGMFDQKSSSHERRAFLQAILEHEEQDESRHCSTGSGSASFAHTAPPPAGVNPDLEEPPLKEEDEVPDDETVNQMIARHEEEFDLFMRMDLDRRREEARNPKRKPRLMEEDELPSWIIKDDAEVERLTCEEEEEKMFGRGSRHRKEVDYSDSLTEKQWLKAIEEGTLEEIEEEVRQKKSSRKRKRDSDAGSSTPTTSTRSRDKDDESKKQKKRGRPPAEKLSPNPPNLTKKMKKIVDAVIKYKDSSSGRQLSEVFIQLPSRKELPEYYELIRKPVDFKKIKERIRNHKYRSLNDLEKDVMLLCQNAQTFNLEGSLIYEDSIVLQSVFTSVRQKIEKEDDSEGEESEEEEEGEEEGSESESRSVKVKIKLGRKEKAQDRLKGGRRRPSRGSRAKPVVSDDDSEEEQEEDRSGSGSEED

Row | SMARC A2 Hela HiBit Dmax (%) (SMARCA2; [5]) | DC50 (SMARCA2; [6]) [nM] | SMARC A4 Hela HiBit Dmax(%) (SMARCA4; [3]) | DC50 (SMARCA4) [nM] | Compound | DC50 (SMARCA2; [4]) [nM] | further results
1 | A (A (>90% degradation)) | < 100 | B (B (70-90% degradation)) | < 100 | Cc1ncsc1-c1ccc([C@H](C)NC(=O)[C@@H]2C[C@@H](O)CN2C(=O)[C@@H](n2cc(CCCCN3CCC(c4ccc5c(c4)-n4c(nc(=O)c6c(Br)cccc64)C54CCCCC4)CC3)nn2)C(C)(C)C)cc1 [Compound A45, (2S,4R)-1-((S)-2-(4-(4-(4-(4′-bromo-5′-oxo-5′H-spiro[cyclohexane-1,7′-indolo[1,2-a]quinazolin]-10′-yl)piperidin-1-yl)butyl)-1H-1,2,3-triazol-1-yl)-3,3-dimethylbutanoyl)-4-hydroxy-N—((S)-1-(4-(4-methylthiazol-5-yl)phenyl)ethyl)pyrrolidine-2-carboxamide] |  | 
2 | A (A (>90% degradation)) | < 100 | B (B (70-90% degradation)) | < 100 | Cc1ncsc1-c1ccc([C@H](C)NC(=O)[C@@H]2C[C@@H](O)CN2C(=O)[C@@H](n2cc(CCCCCN3CCC(c4ccc5c(c4)-n4c(nc(=O)c6c(Br)cccc64)C54CCCCC4)CC3)nn2)C(C)(C)C)cc1 [Compound A46, (2S,4R)-1-((S)-2-(4-(5-(4-(4′-bromo-5′-oxo-5′H-spiro[cyclohexane-1,7′-indolo[1,2-a]quinazolin]-10′-yl)piperidin-1-yl)pentyl)-1H-1,2,3-triazol-1-yl)-3,3-dimethylbutanoyl)-4-hydroxy-N—((S)-1-(4-(4-methylthiazol-5-yl)phenyl)ethyl)pyrrolidine-2-carboxamide] |  | 
3 | A (A (>90% degradation)) | < 100 | A (A (>90% degradation)) | < 100 | Cc1ncsc1-c1ccc([C@H](C)NC(=O)[C@@H]2C[C@@H](O)CN2C(=O)[C@@H](n2cc(CCCCCCN3CCC(c4ccc5c(c4)-n4c(nc(=O)c6c(Br)cccc64)C54CCCCC4)CC3)nn2)C(C)(C)C)cc1 [Compound A47, (2S,4R)-1-((S)-2-(4-(6-(4-(4′-bromo-5′-oxo-5′H-spiro[cyclohexane-1,7′-indolo[1,2-a]quinazolin]-10′-yl)piperidin-1-yl)hexyl)-1H-1,2,3-triazol-1-yl)-3,3-dimethylbutanoyl)-4-hydroxy-N—((S)-1-(4-(4-methylthiazol-5-yl)phenyl)ethyl)pyrrolidine-2-carboxamide] |  | 
4 | A (A (>90% degradation)) | < 100 | C (C (50-69% degradation)) | 100 to 500 | Cc1ncsc1-c1ccc([C@H](C)NC(=O)[C@@H]2C[C@@H](O)CN2C(=O)[C@@H](n2cc(CCN3CCC(c4ccc5c(c4)-n4c(nc(=O)c6c(Br)cccc64)C54CCCCC4)CC3)nn2)C(C)(C)C)cc1 [Compound A48, (2S,4R)-1-((S)-2-(4-(2-(4-(4′-bromo-5′-oxo-5′H-spiro[cyclohexane-1,7′-indolo[1,2-a]quinazolin]-10′-yl)piperidin-1-yl)ethyl)-1H-1,2,3-triazol-1-yl)-3,3-dimethylbutanoyl)-4-hydroxy-N—((S)-1-(4-(4-methylthiazol-5-yl)phenyl)ethyl)pyrrolidine-2-carboxamide] |  | 

The next lines start with the molecule.

Row | Compound | SMARC A2 Hela HiBit Dmax (%) (SMARCA2; [5]) | DC50 (SMARCA2; [6]) [nM] | SMARC A4 Hela HiBit Dmax(%) (SMARCA4; [3]) | DC50 (SMARCA4) [nM] | DC50 (SMARCA2; [4]) [nM] | further results
5 | Cc1ncsc1-c1ccc([C@H](C)NC(=O)[C@@H]2C[C@@H](O)CN2C(=O)[C@@H](NC(=O)[C@H]2CC[C@H](CN3CCC(c4ccc5c(c4)-n4c(nc(=O)c6c(Cl)cccc64)C54CCCCC4)CC3)CC2)C(C)(C)C)cc1 [Compound A42, (2S,4R)-1-((S)-2-((1r,4S)-4-((4-(4′-chloro-5′-oxo-5′H-spiro[cyclohexane-1,7′-indolo[1,2-a]quinazolin]-10′-yl)piperidin-1-yl)methyl)cyclohexane-1-carboxamido)-3,3-dimethylbutanoyl)-4-hydroxy-N—((S)-1-(4-(4-methylthiazol-5-yl)phenyl)ethyl)pyrrolidine-2-carboxamide] |  |  |  |  |  | Dmax (SMARCA2; [1]): 70 to 90%; DC50 (SMARCA2; [2]): < 100 nM; SMARC A4 Hela HiBit DC50(nM) (SMARCA4; [3]): No Fit
6 | Cc1ncsc1-c1ccc([C@H](C)NC(=O)[C@@H]2C[C@@H](O)CN2C(=O)[C@@H](n2cc(CN3CCC(c4ccc5c(c4)-n4c(nc(=O)c6c(Br)cccc64)C54CCCCC4)CC3)nn2)C(C)(C)C)cc1 [Compound A43, (2S,4R)-1-((S)-2-(4-((4-(4′-bromo-5′-oxo-5′H-spiro[cyclohexane-1,7′-indolo[1,2-a]quinazolin]-10′-yl)piperidin-1-yl)methyl)-1H-1,2,3-triazol-1-yl)-3,3-dimethylbutanoyl)-4-hydroxy-N—((S)-1-(4-(4-methylthiazol-5-yl)phenyl)ethyl)pyrrolidine-2-carboxamide] |  |  |  |  | < 100 | Dmax (SMARCA2; [1]): > 90%; DC50 (SMARCA4; [3]): < 100 nM; Dmax (SMARCA4; [3]): 70 to 90%
7 | Cc1ncsc1-c1ccc([C@H](C)NC(=O)[C@@H]2C[C@@H](O)CN2C(=O)[C@@H](n2cc(CCCN3CCC(c4ccc5c(c4)-n4c(nc(=O)c6c(Br)cccc64)C54CCCCC4)CC3)nn2)C(C)(C)C)cc1 [Compound A44, (2S,4R)-1-((S)-2-(4-(3-(4-(4′-bromo-5′-oxo-5′H-spiro[cyclohexane-1,7′-indolo[1,2-a]quinazolin]-10′-yl)piperidin-1-yl)propyl)-1H-1,2,3-triazol-1-yl)-3,3-dimethylbutanoyl)-4-hydroxy-N—((S)-1-(4-(4-methylthiazol-5-yl)phenyl)ethyl)pyrrolidine-2-carboxamide] | A (A (>90% degradation)) | < 100 | B (B (70-90% degradation)) | < 100 |  | 
8 | Cc1ncsc1-c1ccc([C@H](C)NC(=O)[C@@H]2C[C@@H](O)CN2C(=O)[C@@H](n2cc([C@H]3CC[C@H](CN4CCC(c5ccc6c(c5)-n5c(nc(=O)c7c(Br)cccc75)C65CCCCC5)CC4)CC3)nn2)C(C)(C)C)cc1 [Compound A49, (2S,4R)-1-((S)-2-(4-((1r,4S)-4-((4-(4′-bromo-5′-oxo-5′H-spiro[cyclohexane-1,7′-indolo[1,2-a]quinazolin]-10′-yl)piperidin-1-yl)methyl)cyclohexyl)-1H-1,2,3-triazol-1-yl)-3,3-dimethylbutanoyl)-4-hydroxy-N—((S)-1-(4-(4-methylthiazol-5-yl)phenyl)ethyl)pyrrolidine-2-carboxamide] | A (A (>90% degradation)) |  | B (B (70-90% degradation)) |  | < 100 | DC50 (SMARCA4; [3]): 100 to 500 nM
9 | Cc1ncsc1-c1ccc([C@H](C)NC(=O)[C@@H]2C[C@@H](O)CN2C(=O)[C@@H](n2cc([C@H]3CC[C@H](CN4CCC(c5ccc6c(n5)-n5c(nc(=O)c7c(Br)cccc75)C65CCCCC5)CC4)CC3)nn2)C(C)(C)C)cc1 [Compound A50, (2S,4R)-1-((S)-2-(4-((1r,4S)-4-((4-(4′-bromo-5′-oxo-5′H-spiro[cyclohexane-1,7′-pyrido[3′,2′: 4,5]pyrrolo[1,2-a]quinazolin]-10′-yl)piperidin-1-yl)methyl)cyclohexyl)-1H-1,2,3-triazol-1-yl)-3,3-dimethylbutanoyl)-4-hydroxy-N—((S)-1-(4-(4-methylthiazol-5-yl)phenyl)ethyl)pyrrolidine-2-carboxamide] |  |  |  |  | < 100 | Dmax (SMARCA2; [7]): > 90%; SMARC A4 Hela HiBit DC50(nM) (SMARCA4; [3]): No Fit
10 | Cc1ncsc1-c1ccc([C@H](C)NC(=O)[C@@H]2C[C@@H](O)CN2C(=O)[C@@H](NC(=O)[C@H]2CC[C@H](CN3CCC(c4ccc5c(n4)-n4c(nc(=O)c6c(Br)cccc64)C54CCCCC4)CC3)CC2)C(C)(C)C)cc1 [Compound A51, (2S,4R)-1-((S)-2-((1r,4S)-4-((4-(4′-bromo-5′-oxo-5′H-spiro[cyclohexane-1,7′-pyrido[3′,2′: 4,5]pyrrolo[1,2-a]quinazolin]-10′-yl)piperidin-1-yl)methyl)cyclohexane-1-carboxamido)-3,3-dimethylbutanoyl)-4-hydroxy-N—((S)-1-(4-(4-methylthiazol-5-yl)phenyl)ethyl)pyrrolidine-2-carboxamide] |  |  |  |  |  | Dmax (SMARCA2; [7]): 50 to 69%; DC50 (SMARCA2; [2]): 501 to 1000 nM; Dmax (SMARCA4; HeLa): < 50%; SMARC A4 Hela HiBit DC50(nM) (SMARCA4; [3]): No Fit
11 | Cc1ncsc1-c1ccc([C@H](C)NC(=O)[C@@H]2C[C@@H](O)CN2C(=O)[C@@H](n2cc(CN3CCC(c4ccc5c(c4)C4(CCCCC4)c4nc(=O)c6c(Br)cccc6n4-5)CC3)nn2)C(C)(C)C)cc1 [Compound A53, (2S,4R)-1-((S)-2-(4-((4-(4′-bromo-5′-oxo-5′H-spiro[cyclohexane-1,7′-indolo[1,2-a]quinazolin]-9′-yl)piperidin-1-yl)methyl)-1H-1,2,3-triazol-1-yl)-3,3-dimethylbutanoyl)-4-hydroxy-N—((S)-1-(4-(4-methylthiazol-5-yl)phenyl)ethyl)pyrrolidine-2-carboxamide] |  |  |  |  | < 100 | Dmax (SMARCA2; [1]): > 90%; DC50 (SMARCA4; [3]): < 100 nM; Dmax (SMARCA4; [3]): > 90%
